The source of these data is patent publication US9708267B2, “Activators of human pyruvate kinase” (The United States of America, as represented by the …, priority 2010, dated 2017).

The assay has as its target hPK, M2 (Homo sapiens, UniProt P14618). Briefly: luminescent pyruvate kinase-luciferase coupled assay (qHTS). The class given is biochemical. The note with it: for Emax: read-out: Max. Res.; for activation at 57 µM: % activation at 57 μM of compound, read-out: hPK, M2 Max. Res. The procedure: AC50 values were determined utilizing the luminescent pyruvate kinase-luciferase coupled assay (Inglese, J. et al, Quantitative high-throughput screening: a titration-based approach that efficiently identifies biological activities in large chemical libraries. Proc. Natl. Acad. Sci. U.S.A. 2006, 103, 11473-11478).
Luminescent Pyruvate Kinase-Luciferase Coupled Assay.
Production of a luminescent signal based on the generation of ATP by pyruvate kinase was determined by using the ATP-dependent enzyme firefly luciferase. Three μL of substrate mix (at r.t.) in assay buffer (50 mM imidazole pH 7.2, 50 mM KCl, 7 mM MgCl2, 0.01% tween 20, 0.05% BSA) was dispensed into Kalypsys (San Diego, Calif., USA) white solid bottom 1,536 well microtiter plates using a bottle-valve solenoid-based dispenser (Kalypsys). The final concentrations of substrates in the assay were 0.1 mM ADP and 0.5 mM PEP. Twenty-three nL of compound in DMSO were delivered with a 1,536-pin array tool, and 1 μL of enzyme mix in assay buffer (final concentration, 0.1 nM pyruvate kinase, 50 mM imidazole pH 7.2, 0.05% BSA, 4° C.) was added. Microtiter plates were incubated at r.t. for 1 hour and 2 uL of luciferase detection mix (Kinase-Glo from Promega, Madison, Wis., USA) at 4° C. protected from light, was added and luminescence was read with a ViewLux (Perkin Elmer, Waltham, Mass., USA) using a 2 second exposure/plate (with 2× binning). The final concentration of DMSO was 0.5% and found not to affect the assay signal.
Data was normalized for AC50 values to control columns containing uninhibited enzyme (n), and AC100 inhibition (i) according the following equation: Activation (%)=[(c−n)/(n−i)]*100 where c=compound, n=DMSO neutral, i=no enzyme control. A % activity of 100% is approximately a 2-fold increase over basal assay signal (% Activation by FBP was variable but averaged 100%). Monitoring of activation was accomplished using enzyme at 3× the final concentration.
All compounds were screened using a qHTS approach, where compounds are assayed using at least seven concentrations to generate concentration-response curves for every compounds. Briefly, qHTS uses an inter-plate dilution method where the first plate contains the highest concentration of a set of compounds in DMSO, while subsequent plates contain the same compounds in the same well locations, but at successive lower concentrations. Using the protocol outlined above, the rate was calculated as a plate throughput of 18 plates/hr or approximately 7 samples/sec on the Kalypsys robotic system which means that a 7 point CRC was obtained every second on the robotic system.
(In qHTS, concentration-response curves come from the screen itself.)

[1] abbreviates: Table 4, 0.1 mM ADP, 0.5 mM PEP, read-out: AC50.
The mark [2] stands for this setting: Table 4, maximum response (activation).
Setting [3] is: Table 2, 0.1 mM ADP, 0.5 mM PEP, mean of three replicate experiments, read-out: hPK, M2 AC50.
The mark [4] stands for this setting: Table 2, mean of three replicate experiments.
The mark [5] stands for this setting: Table 3, 0.1 mM ADP, 0.5 mM PEP, mean of three replicate experiments, read-out: hPK, M2 AC50.
Where [6] appears, read: Table 3, mean of three replicate experiments.

Structures are written as SMILES. Read-outs that look alike come from different tables or passages of the source.

Sequence of hPK, M2 (P14618 whole entry): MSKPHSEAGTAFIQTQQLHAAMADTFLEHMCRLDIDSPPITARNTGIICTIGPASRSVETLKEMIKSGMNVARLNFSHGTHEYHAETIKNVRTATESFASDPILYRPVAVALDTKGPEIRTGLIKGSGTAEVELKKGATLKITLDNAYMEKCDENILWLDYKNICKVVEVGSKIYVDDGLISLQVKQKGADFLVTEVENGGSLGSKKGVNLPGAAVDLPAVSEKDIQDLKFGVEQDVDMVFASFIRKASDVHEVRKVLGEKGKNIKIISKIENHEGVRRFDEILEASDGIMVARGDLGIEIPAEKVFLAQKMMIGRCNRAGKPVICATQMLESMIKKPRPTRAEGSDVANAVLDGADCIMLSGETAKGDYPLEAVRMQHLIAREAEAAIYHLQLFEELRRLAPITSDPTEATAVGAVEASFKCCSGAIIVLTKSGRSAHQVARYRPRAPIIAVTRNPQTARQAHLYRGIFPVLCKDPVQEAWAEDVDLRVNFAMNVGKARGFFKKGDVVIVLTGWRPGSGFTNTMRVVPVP

For `Cc1ccc(NS(=O)(=O)c2cc3c(cc2N2CCCC2)NC(=O)CC3)cc1C` [Compound 62, N-(3,4-dimethylphenyl)-2-oxo-7-(pyrrolidin-1-yl)-1,2,3,4-tetrahydroquinoline-6-sulfonamide], under setting [1], the AC50 (as a rule, the midpoint of the concentration-response curve, whichever way the signal moves) amounted to 0.46 µM. In addition, under setting [2], the Emax turned out to be 124%.

`O=C1CCc2cc(S(=O)(=O)Nc3ccc4c(c3)OCCO4)ccc2N1` [Compound 29, N-(2,3-dihydrobenzo[b][1,4]dioxin-6-yl)-2-oxo-1,2,3,4-tetrahydroquinoline-6-sulfonamide]: the half-maximal activity concentration (AC50) under setting [3] was determined as 16 µM. Moreover, under setting [4], the activation at 57 µM stood at 86%.

Consider `Cc1ccc(NS(=O)(=O)c2ccc3c(c2)C(Cl)(Cl)C(=O)N3)cc1C` [Compound 60, 3,3-dichloro-N-(3,4-dimethylphenyl)-2-oxoindoline-5-sulfonamide], for which the AC50 under setting [1] turned out to be 10.3 µM. In addition, under setting [2], the Emax was found to be 117%.

Turning to `Cc1ccc(NS(=O)(=O)c2cc3c(cc2N(C)C)CCC(=O)N3)cc1C` [Compound 36, 6-(dimethylamino)-N-(3,4-dimethylphenyl)-2-oxo-1,2,3,4-tetrahydroquinoline-7-sulfonamide], under setting [5], the AC50 stood at 0.46 µM. Besides, under setting [6], the activation at 57 µM amounted to 110%.

On to `Cc1ccc(NS(=O)(=O)c2cc3c(cc2N[C@@H](C)CO)NC(=O)CC3)cc1Cl` [Compound 71, (S)—N-(3-chloro-4-methylphenyl)-7-(l-hydroxypropan-2-ylamino)-2-oxo-1,2,3,4-tetrahydroquinoline-6-sulfonamide], for which, under setting [1], the AC50 is 0.08 µM. Also, the Emax under setting [2] was 124%.

On to `O=C1CCc2cc(S(=O)(=O)Nc3cccc(B(O)O)c3)ccc2N1` [Compound 52, 3-(2-oxo-1,2,3,4-tetrahydroquinoline-6-sulfonamido)phenylboronic acid], for which the concentration at half-maximal activity (AC50) under setting [1] turned out to be 0.82 µM. For the same compound, under setting [2], the Emax amounted to 99.3%.

In the case of `Cc1ccc(NS(=O)(=O)c2cc3c(cc2F)NC(=O)CC3)cc1Cl` [Compound 51, N-(3-chloro-4-methylphenyl)-7-fluoro-2-oxo-1,2,3,4-tetrahydroquinoline-6-sulfonamide], the AC50 under setting [1] was 0.12 µM. The Emax under setting [2] stood at 102%.

For `Cc1ccc(NS(=O)(=O)c2ccc3[nH]c(=O)[nH]c3c2)cc1C` [Compound 9, N-(3,4-dimethylphenyl)-2-oxo-2,3-dihydro-1H-benzo[d]imidazole-5-sulfonamide], the half-maximal activity concentration (AC50) (Table 1, 0.1 mM ADP, 0.5 mM PEP, mean of three replicate experiments, read-out: hPK, M2 AC50) stood at 21 µM. The activation at 57 µM (Table 1, mean of three replicate experiments) was found to be 59%.

Turning to `Cc1ccc(NS(=O)(=O)c2cc3c(cc2N2CCC(N(C)C)C2)NC(=O)CC3)cc1C` (centres unmarked) [Compound 63, 7-(3-(dimethylamino)pyrrolidin-1-yl)-N-(3,4-dimethylphenyl)-2-oxo-1,2,3,4-tetrahydroquinoline-6-sulfonamide], the AC50 under setting [1] came out at 8.19 µM. Also, the Emax under setting [2] turned out to be 102%.

`O=C1CCc2cc(S(=O)(=O)Nc3cccnc3)ccc2N1` [Compound 19, 2-oxo-N-(pyridin-3-yl)-1,2,3,4-tetrahydroquinoline-6-sulfonamide]: the AC50 under setting [3] came to 23 µM. Besides, the activation at 57 µM under setting [4] came out at 36%.

As to `Cc1cc(NS(=O)(=O)c2cc3c(cc2F)NC(=O)CC3)ccc1Cl` [Compound 56, N-(4-chloro-3-methylphenyl)-7-fluoro-2-oxo-1,2,3,4-tetrahydroquinoline-6-sulfonamide], the AC50 under setting [1] stood at 0.82 µM. Further, the Emax under setting [2] was found to be 94.2%.

For the compound `Cc1ccc(NS(=O)(=O)c2cc3c(cc2NCC(C)(C)O)NC(=O)CC3)cc1C` [Compound 64, N-(3,4-dimethylphenyl)-7-(2-hydroxy-2-methylpropylamino)-2-oxo-1,2,3,4-tetrahydroquinoline-6-sulfonamide], the concentration at half-maximal activity (AC50) under setting [1] was found to be 1.83 µM. Moreover, the Emax under setting [2] was found to be 100%.

Take `Cc1ccc(NS(=O)(=O)c2cc3c(cc2Cl)CCC(=O)N3)cc1Cl` [Compound 49, 6-chloro-N-(3-chloro-4-methylphenyl)-2-oxo-1,2,3,4-tetrahydroquinoline-7-sulfonamide]: the AC50 under setting [1] was 0.65 µM. Moreover, under setting [2], the Emax was 112%.

`Cc1ccc(Cl)cc1NS(=O)(=O)c1cc2c(cc1Cl)CCC(=O)N2` [Compound 45, 6-chloro-N-(5-chloro-2-methylphenyl)-2-oxo-1,2,3,4-tetrahydroquinoline-7-sulfonamide]: under setting [1], the AC50 came out at 2.91 µM. Further, the Emax under setting [2] was found to be 109%.

Take `Cc1ccc(NC(=O)c2ccc3c(c2)CCC(=O)N3)cc1C` [Compound 42, N-(3,4-dimethylphenyl)-2-oxo-1,2,3,4-tetrahydroquinoline-6-carboxamide]: the “Max. Res.” value under setting [2] was 5. The concentration at half-maximal activity (AC50) (linkage variants of compound 4, read-out: AC50) was 40 µM. Also, the Emax (linkage variants of compound 4) is 5%.

Take `COc1ccc(NS(=O)(=O)c2ccc3c(c2)CCC(=O)N3)cc1` [Compound 22, N-(4-methoxyphenyl)-2-oxo-1,2,3,4-tetrahydroquinoline-6-sulfonamide]: the AC50 under setting [3] was 36 µM. For the same compound, the activation at 57 µM under setting [4] is 47%.

Regarding `O=C1CCc2cc(S(=O)(=O)Nc3cccc4ccccc34)ccc2N1` [Compound 28, N-(naphthalen-1-yl)-2-oxo-1,2,3,4-tetrahydroquinoline-6-sulfonamide], the half-maximal activity concentration (AC50) under setting [3] was 10 µM. The activation at 57 µM under setting [4] was determined as 101%.

For `CCN(CC)c1cc2c(cc1S(=O)(=O)Nc1ccc(C)c(C)c1)CCC(=O)N2` [Compound 66, 7-(diethylamino)-N-(3,4-dimethylphenyl)-2-oxo-1,2,3,4-tetrahydroquinoline-6-sulfonamide], under setting [1], the concentration at half-maximal activity (AC50) was determined as 7.24 µM. Further, the Emax under setting [2] worked out at 111%.

On to `Cc1ccc(NS(=O)(=O)c2cc3c(cc2N(C)C)NC(=O)CC3)cc1C` [Compound 32, 7-(dimethylamino)-N-(3,4-dimethylphenyl)-2-oxo-1,2,3,4-tetrahydroquinoline-6-sulfonamide], for which, under setting [5], the half-maximal activity concentration (AC50) was 0.52 µM. Moreover, the activation at 57 µM under setting [6] came to 106%.

For the compound `Cc1ccc(NS(=O)(=O)c2cc3c(cc2Cl)CCC(=O)N3)cc1C` [Compound 35, 6-chloro-N-(3,4-dimethylphenyl)-2-oxo-1,2,3,4-tetrahydroquinoline-7-sulfonamide], under setting [5], the AC50 is 0.26 µM. The activation at 57 µM under setting [6] amounted to 104%.

As for `Cc1ccc(NS(=O)(=O)c2cc3c(cc2N2CCCCC2)NC(=O)CC3)cc1C` [Compound 34, N-(3,4-dimethylphenyl)-2-oxo-7-(piperidin-1-yl)-1,2,3,4-tetrahydroquinoline-6-sulfonamide], the AC50 under setting [5] amounted to 15 µM. Besides, the activation at 57 µM under setting [6] worked out at 57%.

In the case of `O=C1CCc2cc(S(=O)(=O)Nc3cccc(F)c3)ccc2N1` [Compound 16, N-(3-fluorophenyl)-2-oxo-1,2,3,4-tetrahydroquinoline-6-sulfonamide], the half-maximal activity concentration (AC50) under setting [3] came to 1.8 µM. The activation at 57 µM under setting [4] was determined as 93%.

Regarding `Cc1ccc(NS(=O)(=O)c2cc3c(cc2N(C)CCN(C)C)NC(=O)CC3)cc1C` [Compound 61, 7-((2-(dimethylamino)ethyl)(methyl)amino)-N-(3,4-dimethylphenyl)-2-oxo-1,2,3,4-tetrahydroquinoline-6-sulfonamide], the AC50 under setting [1] worked out at 5.84 µM. Besides, the Emax under setting [2] was found to be 70.5%.

`Cc1ccc(NS(=O)(=O)c2cc3c(cc2NC(C)C)NC(=O)CC3)cc1C` [Compound 65, N-(3,4-dimethylphenyl)-7-(isopropylamino)-2-oxo-1,2,3,4-tetrahydroquinoline-6-sulfonamide]: the half-maximal activity concentration (AC50) under setting [1] turned out to be 0.32 µM. For the same compound, the Emax under setting [2] was found to be 106%.

With `Cc1cc(NS(=O)(=O)c2ccc3c(c2)CCC(=O)N3)ccc1Cl` [Compound 58, N-(4-chloro-3-methylphenyl)-2-oxo-1,2,3,4-tetrahydroquinoline-6-sulfonamide], the half-maximal activity concentration (AC50) under setting [1] was 0.41 µM. Moreover, under setting [2], the Emax is 96.5%.

For the compound `Cc1ccc(NS(=O)(=O)c2cc3c(cc2N[C@H](C)CO)NC(=O)CC3)cc1C` [Compound 69, (R)—N-(3,4-dimethylphenyl)-7-(1-hydroxypropan-2-ylamino)-2-oxo-1,2,3,4-tetrahydroquinoline-6-sulfonamide], the concentration at half-maximal activity (AC50) under setting [1] is 0.37 µM. For the same compound, the Emax under setting [2] is 87.7%.
